Reference: ChEMBL document CHEMBL4138305, “HTS by NMR for the Identification of Potent and Selective Inhibitors of Metalloenzymes” (ACS Med Chem Lett, 2018)
Active and inactive are the calls of the source. The calls are words filed in the database; no cut-off is given here. Square brackets hold non-standard residues; d marks the D form. Peptide text beside a SMILES is read from it. * marks the point of attachment. d(hPhe) = N[C@H](CCc1ccccc1)C(=O)O; Bn = c1ccc(C*)cc1; NHOH = ON*

Columns and labels:
[1] = molecular target: Stromelysin-1 (Homo sapiens) (UniProt P08254); experiment: Inhibition of recombinant human C-terminal DYKDDDDK tagged MMP3 expressed in mammalian expression system at 1 uM relative to control
Sequence of Stromelysin-1 (Homo sapiens) (P08254 100-477 limits assumed): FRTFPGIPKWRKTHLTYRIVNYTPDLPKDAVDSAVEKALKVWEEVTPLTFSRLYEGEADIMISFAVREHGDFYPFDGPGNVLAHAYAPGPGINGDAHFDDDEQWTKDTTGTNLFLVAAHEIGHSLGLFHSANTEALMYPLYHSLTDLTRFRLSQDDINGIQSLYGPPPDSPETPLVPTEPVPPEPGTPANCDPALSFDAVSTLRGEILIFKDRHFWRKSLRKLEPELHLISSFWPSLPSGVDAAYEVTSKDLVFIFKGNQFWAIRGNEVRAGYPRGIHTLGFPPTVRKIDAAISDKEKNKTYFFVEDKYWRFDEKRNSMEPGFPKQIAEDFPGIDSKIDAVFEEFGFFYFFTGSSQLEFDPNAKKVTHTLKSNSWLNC

[2] = molecular target: Matrix metalloproteinase-14 (Homo sapiens) (UniProt P50281); experiment: Inhibition of MMP14 (unknown origin) at 1 uM
[3] = molecular target: T1, Macrophage metalloelastase (Homo sapiens, UniProt P39900); conditions: 1 uM
Target sequence in this assay (P39900 106-470 limits assumed): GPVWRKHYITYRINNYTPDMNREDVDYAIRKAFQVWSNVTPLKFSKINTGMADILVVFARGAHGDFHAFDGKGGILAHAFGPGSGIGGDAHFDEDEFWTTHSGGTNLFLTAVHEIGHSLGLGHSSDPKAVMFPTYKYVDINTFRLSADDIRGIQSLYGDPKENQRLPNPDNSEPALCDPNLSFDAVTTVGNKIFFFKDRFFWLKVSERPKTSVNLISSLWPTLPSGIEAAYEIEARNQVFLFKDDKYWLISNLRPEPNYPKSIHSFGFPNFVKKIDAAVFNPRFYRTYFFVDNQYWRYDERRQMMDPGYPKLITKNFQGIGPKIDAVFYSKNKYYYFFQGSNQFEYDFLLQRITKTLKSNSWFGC

[4] = molecular target: T1, Macrophage metalloelastase; experiment: Inhibition of recombinant human MMP12 catalytic domain (Gly106 to […] residues) expressed in Escherichia coli BL21 codon plus using Mca-Pro-Leu-Gly-Leu-Dpa-Ala-Arg-NH2 as substrate by fluorescence assay
Target sequence in this assay (P39900 whole entry, the tested form may be a part): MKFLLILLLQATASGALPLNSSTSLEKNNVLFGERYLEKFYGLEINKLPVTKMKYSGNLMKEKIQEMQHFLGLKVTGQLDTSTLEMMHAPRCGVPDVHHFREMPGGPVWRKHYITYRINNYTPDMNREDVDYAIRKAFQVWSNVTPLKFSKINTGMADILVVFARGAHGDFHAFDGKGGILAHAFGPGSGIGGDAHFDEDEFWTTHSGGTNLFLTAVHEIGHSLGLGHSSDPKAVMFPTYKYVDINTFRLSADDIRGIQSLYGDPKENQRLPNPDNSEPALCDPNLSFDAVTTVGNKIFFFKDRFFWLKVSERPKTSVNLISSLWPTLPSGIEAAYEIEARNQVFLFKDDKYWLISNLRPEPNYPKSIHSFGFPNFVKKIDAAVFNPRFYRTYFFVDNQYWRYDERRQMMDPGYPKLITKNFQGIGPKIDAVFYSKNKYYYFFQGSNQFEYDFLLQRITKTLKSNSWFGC

[5] = molecular target: T2, Interstitial collagenase (Homo sapiens) (UniProt P03956); experiment: Inhibition of MMP1 (unknown origin) at 1 uM
T2 sequence (whole entry): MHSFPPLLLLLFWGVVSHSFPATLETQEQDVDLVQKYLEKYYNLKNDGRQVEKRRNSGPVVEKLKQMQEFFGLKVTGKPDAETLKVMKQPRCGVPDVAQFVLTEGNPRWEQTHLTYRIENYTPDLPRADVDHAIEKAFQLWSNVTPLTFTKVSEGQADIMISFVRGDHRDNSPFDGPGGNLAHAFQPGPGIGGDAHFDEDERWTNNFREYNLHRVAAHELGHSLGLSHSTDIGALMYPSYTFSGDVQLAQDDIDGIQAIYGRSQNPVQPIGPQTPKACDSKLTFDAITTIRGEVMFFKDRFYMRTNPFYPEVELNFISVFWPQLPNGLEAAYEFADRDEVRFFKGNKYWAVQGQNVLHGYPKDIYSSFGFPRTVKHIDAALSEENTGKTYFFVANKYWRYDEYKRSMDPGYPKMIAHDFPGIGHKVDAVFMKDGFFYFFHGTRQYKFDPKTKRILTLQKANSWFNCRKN

[6] = molecular target: Matrix metalloproteinase-9 (Homo sapiens) (UniProt P14780); experiment: Inhibition of MMP9 (unknown origin) at 1 uM
Sequence of Matrix metalloproteinase-9 (Homo sapiens) (P14780 whole entry): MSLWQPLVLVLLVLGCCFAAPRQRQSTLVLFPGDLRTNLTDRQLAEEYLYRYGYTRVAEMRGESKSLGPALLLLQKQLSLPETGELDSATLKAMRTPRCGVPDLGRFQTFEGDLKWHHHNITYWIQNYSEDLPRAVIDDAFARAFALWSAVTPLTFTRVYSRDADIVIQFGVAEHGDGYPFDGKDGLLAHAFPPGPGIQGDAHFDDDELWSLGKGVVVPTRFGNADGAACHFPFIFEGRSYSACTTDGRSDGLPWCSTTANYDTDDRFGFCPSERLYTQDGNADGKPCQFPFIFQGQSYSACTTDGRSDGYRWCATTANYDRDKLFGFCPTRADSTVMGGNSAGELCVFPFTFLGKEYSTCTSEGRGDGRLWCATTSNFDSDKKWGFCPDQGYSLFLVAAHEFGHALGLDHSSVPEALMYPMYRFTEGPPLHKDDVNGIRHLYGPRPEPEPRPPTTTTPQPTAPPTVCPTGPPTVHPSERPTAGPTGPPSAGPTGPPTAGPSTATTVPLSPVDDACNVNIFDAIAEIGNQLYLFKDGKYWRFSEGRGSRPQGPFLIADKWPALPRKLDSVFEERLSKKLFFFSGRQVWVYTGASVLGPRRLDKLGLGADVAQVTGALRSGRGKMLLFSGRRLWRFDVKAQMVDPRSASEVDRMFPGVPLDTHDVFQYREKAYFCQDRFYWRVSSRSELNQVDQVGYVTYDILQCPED

[7] = molecular target: T1, Macrophage metalloelastase; experiment: Inhibition of recombinant human C-terminal DYKDDDDK tagged MMP12 expressed in mammalian expression system at 55 to 100 nM
Target sequence in this assay (P39900 106-470 limits assumed): as the sequence (P39900 106-470 limits assumed) above

[8] = molecular target: T1, Macrophage metalloelastase; experiment: Binding affinity to recombinant human MMP12 catalytic domain (Gly106 to […] residues) expressed in Escherichia coli BL21 codon plus by 1D 1H aliphatic NMR spectra analysis
Target sequence in this assay (P39900 whole entry, the tested form may be a part): as the sequence (P39900 whole entry, the tested form may be a part) above

[9] = molecular target: T1, Macrophage metalloelastase; experiment: Binding affinity to recombinant human MMP12 catalytic domain (Gly106 to […] residues) expressed in Escherichia coli BL21 codon plus by 2D [15N,1H] HMQC spectra analysis
Target sequence in this assay (P39900 whole entry, the tested form may be a part): as above

[10] = molecular target: Stromelysin-1 (Homo sapiens) (UniProt P08254); experiment: Inhibition of recombinant human C-terminal DYKDDDDK tagged MMP3 expressed in mammalian expression system at 55 nM relative to control

inhibition [1]	inhibition [2]	inhibition [3]	IC50 [4] [nM]	inhibition [5]	inhibition [6]	inhibition [7]	Kd [8] [nM]	Kd [9] [nM]	inhibition [10] [%]	Structure (SMILES)
Active	Active	Active	5.2	Active	Active					CNC(=O)[C@H](Cc1c[nH]c2ccccc12)NC(=O)[C@@H](CC(=O)NO)CC(C)C [ILOMASTAT]
78%	Active		54.7	Active	Active	Active	< 50	< 50	19	CC(=O)N[C@@H](COCc1ccccc1)C(=O)N[C@H](CCc1ccccc1)C(=O)N[C@H](Cc1ccccc1)C(=O)NO (Ac-Ser(Bn)-[d(hPhe)]-[dF]-{NHOH})
